# Molecular target: Neuronal acetylcholine receptor; alpha4/beta2 (Rattus norvegicus, UniProt P09483+P12390)
# Assay: Displacement of [3H]cytisine from nAChR alpha4beta2 in rat brain membrane
# Assay type: cell membranes
# Conditions: read-out: Ki
# Neuronal acetylcholine receptor; alpha4/beta2, sequence (P09483 whole entry): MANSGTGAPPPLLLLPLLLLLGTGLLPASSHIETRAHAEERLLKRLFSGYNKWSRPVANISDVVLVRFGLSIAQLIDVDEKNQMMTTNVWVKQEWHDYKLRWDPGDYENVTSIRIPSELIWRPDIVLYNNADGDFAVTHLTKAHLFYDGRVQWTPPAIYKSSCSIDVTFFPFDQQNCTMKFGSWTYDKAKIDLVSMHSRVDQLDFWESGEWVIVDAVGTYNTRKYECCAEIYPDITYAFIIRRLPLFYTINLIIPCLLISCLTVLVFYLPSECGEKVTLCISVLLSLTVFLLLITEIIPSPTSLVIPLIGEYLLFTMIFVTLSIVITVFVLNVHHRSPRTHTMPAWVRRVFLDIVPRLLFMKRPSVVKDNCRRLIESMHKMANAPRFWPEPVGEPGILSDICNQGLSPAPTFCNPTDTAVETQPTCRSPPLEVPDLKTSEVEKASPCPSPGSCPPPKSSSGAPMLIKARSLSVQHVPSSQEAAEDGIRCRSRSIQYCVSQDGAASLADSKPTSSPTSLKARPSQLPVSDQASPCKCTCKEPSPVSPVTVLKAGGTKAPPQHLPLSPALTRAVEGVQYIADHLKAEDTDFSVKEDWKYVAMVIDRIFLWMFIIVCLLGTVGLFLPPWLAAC
# Neuronal acetylcholine receptor; alpha4/beta2, sequence (P12390 whole entry): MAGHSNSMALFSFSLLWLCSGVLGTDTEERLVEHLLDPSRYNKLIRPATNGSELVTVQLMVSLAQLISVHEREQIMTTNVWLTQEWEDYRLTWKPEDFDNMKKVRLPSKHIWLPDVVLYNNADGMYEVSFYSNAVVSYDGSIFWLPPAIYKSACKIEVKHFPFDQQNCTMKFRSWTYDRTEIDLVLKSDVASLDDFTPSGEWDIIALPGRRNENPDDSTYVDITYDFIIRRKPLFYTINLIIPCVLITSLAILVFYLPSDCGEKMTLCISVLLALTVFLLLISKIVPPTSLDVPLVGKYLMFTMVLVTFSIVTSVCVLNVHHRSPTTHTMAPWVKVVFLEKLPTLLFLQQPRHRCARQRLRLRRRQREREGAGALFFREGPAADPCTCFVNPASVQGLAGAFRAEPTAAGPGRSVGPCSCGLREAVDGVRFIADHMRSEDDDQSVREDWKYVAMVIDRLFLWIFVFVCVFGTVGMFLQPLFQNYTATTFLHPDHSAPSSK
row,SMILES,Ki [nM]
1,CC(C)Oc1cccc(NC(=O)c2cncc(N3C[C@H]4CNC[C@H]4C3)n2)c1,26
2,O=C(NCc1ccccc1)c1cncc(N2C[C@H]3CNC[C@H]3C2)n1,3.9
3,Cc1cccc(NC(=O)c2cncc(N3C[C@H]4CNC[C@H]4C3)n2)c1,7.6
4,O=C(Nc1cc(F)cc(F)c1)c1cncc(N2C[C@H]3CNC[C@H]3C2)c1,0.04
5,Cc1ccccc1CNC(=O)c1cncc(N2C[C@H]3CNC[C@H]3C2)n1,1.7
6,Cc1ccccc1CNC(=O)c1cncc(N2C[C@@H]3CCN[C@@H]3C2)n1,> 10000
7,C[C@@H](NC(=O)c1cncc(N2C[C@H]3CNC[C@H]3C2)c1)c1ccccc1,2.2
8,C[C@H](NC(=O)c1cncc(N2C[C@H]3CNC[C@H]3C2)c1)c1ccccc1,39
9,Cc1cc(C)cc(NC(=O)c2cncc(N3C[C@H]4CNC[C@H]4C3)c2)c1,0.3
10,Cc1cccc(NC(=O)c2cncc(N3C[C@@H]4CCN[C@@H]4C3)n2)c1,2630
11,CN(Cc1ccccc1)C(=O)c1cncc(N2C[C@H]3CNC[C@H]3C2)n1,174
12,O=C(Nc1ccc(Cl)cc1)c1cncc(N2C[C@H]3CNC[C@H]3C2)c1,0.2
13,O=C(Nc1cccc(I)c1)c1cncc(N2C[C@H]3CNC[C@H]3C2)n1,3.3
14,CC(NC(=O)c1cncc(N2C[C@H]3CNC[C@H]3C2)n1)c1ccccc1 (stereo not given in full),132
15,Cc1ccccc1CNC(=O)c1cncc(N2CC[C@@H]3CNC[C@@H]32)n1,5600
16,CC(C)c1cccc(NC(=O)c2cncc(N3C[C@H]4CNC[C@H]4C3)n2)c1,35
17,Cc1cccc(NC(=O)c2cncc(N3C[C@H]4CNC[C@H]4C3)c2)c1,0.1
18,O=C(Nc1cccc(I)c1)c1cncc(N2C[C@H]3CNC[C@H]3C2)c1,0.02

# Same assay, conditions: read-out: pKi (converted)
row,SMILES,Ki [nM]
1,Cc1ccccc1CNC(=O)c1cncc(N2C[C@@H]3CCN[C@@H]3C2)n1,> 10000
2,Cc1cc(C)cc(NC(=O)c2cncc(N3C[C@H]4CNC[C@H]4C3)c2)c1,0.339
3,O=C(Nc1cccc(I)c1)c1cncc(N2C[C@H]3CNC[C@H]3C2)c1,0.0245

# System: not listed separately
# Assay: Bioavailability in rat at 2 umol/kg, ip
# Assay type: ADME, organism-based
# Conditions: in vivo
row,SMILES,bioavailability [%]
1,Cc1ccccc1CNC(=O)c1cncc(N2C[C@H]3CNC[C@H]3C2)n1,77

# System: not listed separately
# Assay: Half life in rat at 2 umol/kg, iv measured after 8 hrs
# Assay type: ADME, organism-based
# Conditions: in vivo
row,SMILES,half-life [h]
1,Cc1ccccc1CNC(=O)c1cncc(N2C[C@H]3CNC[C@H]3C2)n1,1.7

# System: not listed separately
# Assay: Half life in rat at 2 umol/kg, ip measured after 8 hrs
# Assay type: ADME, organism-based
# Conditions: in vivo
row,SMILES,half-life [h]
1,Cc1ccccc1CNC(=O)c1cncc(N2C[C@H]3CNC[C@H]3C2)n1,2.4

# System: not listed separately
# Assay: Agonist activity at nAChR alpha3beta4* expressed in human IMR32 cells assessed as calcium flux by FLIPR assay
# Assay type: functional, cell-based
# Conditions: IMR-32, read-out: EC50
row,SMILES,EC50 [nM]
1,CC(C)Oc1cccc(NC(=O)c2cncc(N3C[C@H]4CNC[C@H]4C3)n2)c1,> 100000
2,O=C(NCc1ccccc1)c1cncc(N2C[C@H]3CNC[C@H]3C2)n1,> 100000
3,Cc1cccc(NC(=O)c2cncc(N3C[C@H]4CNC[C@H]4C3)n2)c1,> 100000
4,O=C(Nc1cc(F)cc(F)c1)c1cncc(N2C[C@H]3CNC[C@H]3C2)c1,> 100000
5,Cc1ccccc1CNC(=O)c1cncc(N2C[C@H]3CNC[C@H]3C2)n1,> 100000
6,C[C@@H](NC(=O)c1cncc(N2C[C@H]3CNC[C@H]3C2)c1)c1ccccc1,> 100000
7,C[C@H](NC(=O)c1cncc(N2C[C@H]3CNC[C@H]3C2)c1)c1ccccc1,> 100000
8,Cc1cc(C)cc(NC(=O)c2cncc(N3C[C@H]4CNC[C@H]4C3)c2)c1,> 100000
9,O=C(Nc1ccc(Cl)cc1)c1cncc(N2C[C@H]3CNC[C@H]3C2)c1,> 100000
10,O=C(Nc1cccc(I)c1)c1cncc(N2C[C@H]3CNC[C@H]3C2)n1,> 100000
11,Cc1cccc(NC(=O)c2cncc(N3C[C@H]4CNC[C@H]4C3)c2)c1,> 100000
12,O=C(Nc1cccc(I)c1)c1cncc(N2C[C@H]3CNC[C@H]3C2)c1,> 100000

# System: not listed separately
# Assay: Half life in rat at 2 umol/kg, po measured after 8 hrs
# Assay type: ADME, organism-based
# Conditions: in vivo
row,SMILES,half-life [h]
1,Cc1ccccc1CNC(=O)c1cncc(N2C[C@H]3CNC[C@H]3C2)n1,2.1

# System: not listed separately
# Assay: Drug uptake in rat plasma at 2 umol/kg, ip measured after 0.75 hrs
# Assay type: ADME, organism-based
# Conditions: not given
row,SMILES,concentration at 0.75 h [ng/mL]
1,O=C(NCc1ccccc1)c1cncc(N2C[C@H]3CNC[C@H]3C2)n1,81.3
2,Cc1ccccc1CNC(=O)c1cncc(N2C[C@H]3CNC[C@H]3C2)n1,178
3,C[C@@H](NC(=O)c1cncc(N2C[C@H]3CNC[C@H]3C2)c1)c1ccccc1,139
4,c1ccc(COc2cncc(N3C[C@H]4CNC[C@H]4C3)n2)cc1,23.5
5,Cc1cccc(NC(=O)c2cncc(N3C[C@H]4CNC[C@H]4C3)c2)c1,52.1

# System: not listed separately
# Assay: Agonist activity at nAChR alpha3beta4* expressed in human IMR32 cells assessed as calcium flux by FLIPR assay relative to nicotine
# Assay type: functional
# Conditions: IMR-32
row,SMILES,Emax [%]
1,CC(C)Oc1cccc(NC(=O)c2cncc(N3C[C@H]4CNC[C@H]4C3)n2)c1,7
2,O=C(NCc1ccccc1)c1cncc(N2C[C@H]3CNC[C@H]3C2)n1,10
3,Cc1cccc(NC(=O)c2cncc(N3C[C@H]4CNC[C@H]4C3)n2)c1,10
4,O=C(Nc1cc(F)cc(F)c1)c1cncc(N2C[C@H]3CNC[C@H]3C2)c1,18
5,Cc1ccccc1CNC(=O)c1cncc(N2C[C@H]3CNC[C@H]3C2)n1,17
6,C[C@@H](NC(=O)c1cncc(N2C[C@H]3CNC[C@H]3C2)c1)c1ccccc1,6
7,C[C@H](NC(=O)c1cncc(N2C[C@H]3CNC[C@H]3C2)c1)c1ccccc1,5
8,Cc1cc(C)cc(NC(=O)c2cncc(N3C[C@H]4CNC[C@H]4C3)c2)c1,6
9,O=C(Nc1ccc(Cl)cc1)c1cncc(N2C[C@H]3CNC[C@H]3C2)c1,8
10,O=C(Nc1cccc(I)c1)c1cncc(N2C[C@H]3CNC[C@H]3C2)n1,7
11,Cc1cccc(NC(=O)c2cncc(N3C[C@H]4CNC[C@H]4C3)c2)c1,6
12,O=C(Nc1cccc(I)c1)c1cncc(N2C[C@H]3CNC[C@H]3C2)c1,6

# System: not listed separately
# Assay: Ratio drug uptake in brain to plasma of rat at 2 umol/kg, ip measured after 0.75 hrs
# Assay type: ADME, organism-based
# Conditions: read-out: BPR
row,SMILES,Kp at 0.75 h
1,O=C(NCc1ccccc1)c1cncc(N2C[C@H]3CNC[C@H]3C2)n1,0.04
2,Cc1ccccc1CNC(=O)c1cncc(N2C[C@H]3CNC[C@H]3C2)n1,0.04
3,C[C@@H](NC(=O)c1cncc(N2C[C@H]3CNC[C@H]3C2)c1)c1ccccc1,0.15
4,c1ccc(COc2cncc(N3C[C@H]4CNC[C@H]4C3)n2)cc1,3.27
5,Cc1cccc(NC(=O)c2cncc(N3C[C@H]4CNC[C@H]4C3)c2)c1,0.12

# System: not listed separately
# Assay: Drug uptake in rat brain at 2 umol/kg, ip measured after 0.75 hrs
# Assay type: ADME, organism-based
# Conditions: read-out: Drug uptake
row,SMILES,concentration at 0.75 h [ng/mL]
1,O=C(NCc1ccccc1)c1cncc(N2C[C@H]3CNC[C@H]3C2)n1,3
2,Cc1ccccc1CNC(=O)c1cncc(N2C[C@H]3CNC[C@H]3C2)n1,8
3,C[C@@H](NC(=O)c1cncc(N2C[C@H]3CNC[C@H]3C2)c1)c1ccccc1,20.6
4,c1ccc(COc2cncc(N3C[C@H]4CNC[C@H]4C3)n2)cc1,76.8
5,Cc1cccc(NC(=O)c2cncc(N3C[C@H]4CNC[C@H]4C3)c2)c1,6.4

# System: not listed separately
# Assay: Oral bioavailability in rat at 2 umol/kg
# Assay type: ADME, organism-based
# Conditions: in vivo
row,SMILES,bioavailability [%]
1,Cc1ccccc1CNC(=O)c1cncc(N2C[C@H]3CNC[C@H]3C2)n1,35
